Assay results reported in patent US20250152719A1, “FUSED IMIDE DERIVATIVE” (Chia Tai Tianqing Pharmaceutical Group Co., Ltd., priority 2021, published 2025).
Like-named read-outs stand apart in the source and are kept apart here.

Experiments:
[1] = system: OCI-LY10 cells; experiment: Inhibitory activity on OCI-LY10 cell proliferation (CCK-8); type: cell-based
Outline: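 Cells seeded at 1×10^5 cells/mL and incubated overnight were exposed in duplicate to final compound concentrations of 5000 nM-0.31 nM for 72 h. CCK-8 was added for 2.5 h and absorbance read at 450 nm. IC50 was obtained from four-parameter dose-response fits.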

[2] = biological target: BTK(WT) kinase (Homo sapiens (Human), UniProt Q06187); experiment: Inhibitory activity on BTK(WT) kinase; type: biochemical; settings: ATP 10 μM
Procedure: (§1) The Assay Buffer was prepared, and the composition of the Assay Buffer was 50 mM Hepes (Gibco, 15630), 10 mM MgCl2, 2 mM DTT, 1 mM EGTA, and 0.010% Tween 20. BTK(WT) kinase (Life, PR5442A), ATP (Sigma, A7699), and ULight-poly GT (PE, TRF0100-M) working solutions were prepared using the Assay Buffer. EDTA and Eu-labeled anti-phosphotyrosine (PT66) antibody (PE, AD0069) working solutions were prepared using the Detection Buffer (PE, CR97-100). 6 μL of BTK(WT) kinase at the corresponding concentration (final concentration: 0.003 ng/L) was added to the compound groups and the control group, while 6 μL of the Assay Buffer was added to the blank group, and then the compounds (with the concentration set to 1000 nM at the maximum, 4-fold dilution, 7 concentration gradients) were each added using a nanoliter pipettor. The mixture was incubated at room temperature for 30 min, and then 4 μL of the mixture of ATP (final concentration: 10 μM) and ULight-poly GT (final concentration: 100 nM) was added. After incubation at room temperature for 2 h, 5 μL of EDTA (final concentration: 10 mM) was added to stop the reaction, and finally 5 μL of antibody (final concentration: 2 nM) was added. After incubation at room temperature for 1 h, signal values were detected at 665/615 nM, the four-parameter analysis was performed, the dose-response curves were fit, and IC50 was calculated.

[3] = biological target: BTK(C481S) kinase (Homo sapiens (Human), UniProt Q06187, C481S); experiment: Inhibitory activity on BTK(C481S) kinase; type: biochemical; settings: ATP 10 μM
Procedure: as §1, with “BTK(C481S)” for “BTK(WT)”, “(Carna Biosciences, 08-547),” for “(Life, PR5442A),”, “Buffer.” for “Buffer (PE, CR97-100).”, “0.005 ng/μL)” for “0.003 ng/L)”, “were” for “were each”

[4] = biological target: EGFR kinase (Homo sapiens (Human), UniProt P00533); experiment: Inhibitory activity on EGFR kinase; type: biochemical; settings: ATP 5 μM
Procedure: The Assay Buffer was prepared, and the composition of the Assay Buffer was 50 mM Hepes (Gibco, 15630), 10 mM MgCl2, 2 mM DTT, 1 mM EGTA, and 0.010% Tween 20. EGFR kinase (Carna, 08-115), ATP (Sigma, A7699), and ULight-poly GT (PE, TRF0100-M) working solutions were prepared using the Assay Buffer. EDTA and Eu-labeled anti-phosphotyrosine (PT66) antibody (PE, AD0069) working solutions were prepared using the Detection Buffer. 6 μL of EGFR kinase at the corresponding concentration (final concentration: 0.006 ng/μL) was added to the compound groups and the control group, while 6 μL of the Assay Buffer was added to the blank group, and then the compounds (with the concentration set to 1000 nM at the maximum, 4-fold dilution, 7 concentration gradients) were added using a nanoliter pipettor. The mixture was incubated at room temperature for 30 min, and then 4 μL of the mixture of ATP (final concentration: 5 μM) and ULight-poly GT (final concentration: 100 nM) was added. After incubation at room temperature for 2 h, 5 μL of EDTA (final concentration: 10 mM) was added to stop the reaction, and finally 5 μL of antibody (final concentration: 2 nM) was added. After incubation at room temperature for 1 h, signal values were detected at 665/615 nM, the four-parameter analysis was performed, the dose-response curves were fit, and IC50 was calculated.

[5] = Mouse pharmacokinetics; type: in vivo, ICR mice
Outline: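 ICR mice (18–22 g, n=9 per group) dosed intragastrically at 10 mg/kg. Orbital blood sampled from 15 min to 24 h; plasma was precipitated with acetonitrile containing internal standard and quantified against a standard curve. Parameters derived by non-compartmental analysis.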

[6] = Homo sapiens, OCI-Ly10, 72 h incubation
[7] = ICR, mouse, plasma, iv, 1 mg/kg, Mouse i.v. 1 mpk
[8] = ICR, mouse, plasma, iv, 1 mg/kg, Mouse i.v. 1 mpk, read-out: AUC
[9] = ICR, mouse, plasma, po, 10 mg/kg, Mouse i.g. 10 mpk
[10] = ICR, mouse, plasma, po, 10 mg/kg, Mouse i.g. 10 mpk, read-out: AUC
[11] = ICR, mouse, plasma, po, 10 mg/kg, Mouse i.g. 10 mpk, read-out: Cmax

Sequence of EGFR kinase (P00533 669-1210): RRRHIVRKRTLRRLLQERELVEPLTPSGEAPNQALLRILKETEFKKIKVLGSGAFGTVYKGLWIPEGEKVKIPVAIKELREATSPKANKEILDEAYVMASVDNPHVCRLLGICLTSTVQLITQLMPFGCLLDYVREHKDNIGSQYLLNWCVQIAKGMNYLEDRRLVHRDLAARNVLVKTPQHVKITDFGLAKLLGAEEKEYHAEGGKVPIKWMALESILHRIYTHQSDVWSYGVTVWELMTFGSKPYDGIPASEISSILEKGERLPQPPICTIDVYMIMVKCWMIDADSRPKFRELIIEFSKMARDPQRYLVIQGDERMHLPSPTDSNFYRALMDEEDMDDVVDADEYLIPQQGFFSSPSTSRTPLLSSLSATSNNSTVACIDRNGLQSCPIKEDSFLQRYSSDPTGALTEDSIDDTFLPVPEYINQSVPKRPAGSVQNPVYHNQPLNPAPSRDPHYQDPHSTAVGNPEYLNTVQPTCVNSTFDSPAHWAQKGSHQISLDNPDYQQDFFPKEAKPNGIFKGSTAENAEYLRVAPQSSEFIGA
Sequence of BTK(WT) kinase (Q06187 whole entry): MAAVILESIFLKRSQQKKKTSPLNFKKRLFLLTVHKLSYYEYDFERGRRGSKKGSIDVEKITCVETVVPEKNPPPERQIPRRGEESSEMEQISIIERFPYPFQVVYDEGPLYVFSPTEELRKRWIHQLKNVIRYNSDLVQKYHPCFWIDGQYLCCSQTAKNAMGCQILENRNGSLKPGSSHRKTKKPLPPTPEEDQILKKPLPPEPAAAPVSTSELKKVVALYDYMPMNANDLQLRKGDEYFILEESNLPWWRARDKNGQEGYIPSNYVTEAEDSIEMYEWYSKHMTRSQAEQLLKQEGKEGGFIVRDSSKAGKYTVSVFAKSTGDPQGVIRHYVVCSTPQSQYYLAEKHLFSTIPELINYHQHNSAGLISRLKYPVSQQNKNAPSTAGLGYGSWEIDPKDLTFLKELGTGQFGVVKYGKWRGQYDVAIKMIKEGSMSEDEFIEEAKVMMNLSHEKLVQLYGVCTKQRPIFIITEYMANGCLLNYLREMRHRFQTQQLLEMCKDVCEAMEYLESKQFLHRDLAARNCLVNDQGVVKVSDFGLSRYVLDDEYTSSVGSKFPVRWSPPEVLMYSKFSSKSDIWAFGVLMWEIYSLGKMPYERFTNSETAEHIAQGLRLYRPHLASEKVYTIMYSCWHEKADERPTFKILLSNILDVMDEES
Sequence of BTK(C481S) kinase (Q06187 whole entry C481S): as the sequence (Q06187 whole entry) above, with C481S counted along it

IC50 [1, 6] [nM]	IC50 [2] [nM]	IC50 [3] [nM]	IC50 [4] [nM]	clearance [5, 7] [mL/min/kg]	half-life [5, 7] [h]	AUC [5, 8] [ng·h/mL]	half-life [5, 9] [h]	AUC [5, 10] [ng·h/mL]	Cmax [5, 11] [ng/mL]	F ([5]; Mouse i.g. 10 mpk) [%]	IC50 ([1]; 72 h incubation) [nM]	AUC ([5]; Mouse i.g. 10 mpk) [ng·h/mL]	Cmax ([5]; Mouse i.g. 10 mpk) [ng/mL]	t1/2 ([5]; Mouse i.g. 10 mpk) [h]	AUC ([5]; Mouse i.v. 1 mpk) [ng·h/mL]	Cl ([5]; Mouse i.v. 1 mpk) [mL/min/kg]	t1/2 ([5]; Mouse i.v. 1 mpk) [h]	SMILES
< 0.31	7.1	19.6	3320	2.65	1.6	6140	2.9	35600	3850	57.98								CN1CCN([C@@H]2CCCN(c3cnc(C(N)=O)c(Nc4ccc(C5CCN(C6CN(c7ccc8c(C9CCC(=O)NC9=O)noc8c7)C6)CC5)cc4)n3)C2)C1=O (stereo partly drawn) [Compound 10]
< 0.31	0.96	9	109	9.33	1.4	1760	2.4	7690	766	44.0								CN1CCN([C@@H]2CCCN(c3cnc(C(N)=O)c(Nc4ccc(N5CCC(CN6CCc7ccc8c(C9CCC(=O)NC9=O)noc8c7CC6)CC5)cc4)n3)C2)C1=O (stereo partly drawn) [Compound 27]
	11	22	785							26.0	< 0.31	20971	1555	3.2	7987	2.17	2.6	CN1CCN([C@@H]2CCCN(c3cnc(C(N)=O)c(Nc4ccc(C5CCC(N6Cc7ccc8c(C9CCC(=O)NC9=O)noc8c7C6)CC5)cc4)n3)C2)C1=O (stereo partly drawn) [Compound 33]
